Test results: patent US20070099877A1, “N-aryl-thienopyrimidin-4-amines and analogs as activators of caspases and inducers of apoptosis and the use thereof” (Cytovia, Inc., priority 2005, published 2007)
Where a name gives a salt, the structure may show the parent alone. Read-outs that look alike come from different tables or passages of the source.

Assays:
Assay type in all cases: cell-based
[1] = test system: human lung cancer cell line H1299; assay: Caspase cascade activation in H1299 cells; conditions: NCI-H1299, 24 h, read-out: Caspase activation Potency EC50 H1299 (24 h)
Description: (§1) Human breast cancer cell line T-47D, human lung cancer cell line H1299, human hepatocellular carcinoma cell line SNU398, human colon carcinoma cell line HCT116 were grown according to media component mixtures designated by American Type Culture Collection+10% FCS (Invitrogen Corporation), in a 5% CO2-95% humidity incubator at 37° C. T-47D and H1299 cells were maintained at a cell density between 50 and 80% confluency at a cell density of 0.1 to 0.6×10^6 cells/mL. Cells were harvested at 600×g and resuspended at 0.65×10^6 cells/mL into appropriate media+10% FCS. An aliquot of 22.5 μL of cells was added to a well of a 384-well microtiter plate containing 2.5 μL of a 10% DMSO in RPMI-1640 media solution containing 0.16 to 100 μM of N-(2,5-dimethoxyphenyl)-2-methylthieno[3,2-d]pyrimidin-4-amine or other test compound (0.016 to 10 μM final). An aliquot of 22.5 μL of cells was added to a well of a 384-well microtiter plate containing 2.5 μL of a 10% DMSO in RPMI-1640 media solution without test compound as the control sample. The samples were mixed by agitation and then incubated at 37° C. for 24 h or 48 h in a 5% CO2-95% humidity incubator. After incubation, the samples were removed from the incubator and 25 μL of a solution containing 14 μM of N-(Ac-DEVD)-N′-ethoxycarbonyl-R110 (SEQ ID NO.:1) fluorogenic substrate (Cytovia, Inc.; WO99/18856), 20% sucrose (Sigma), 20 mM DTT (Sigma), 200 mM NaCl (Sigma), 40 mM Na PIPES buffer pH 7.2 (Sigma), and 500 μg/mL lysolecithin (Calbiochem) was added. The samples were mixed by agitation and incubated at room temperature. Using a fluorescent plate reader (Model SPECTRAfluor Plus, Tecan), an initial reading (T=0) was made approximately 1-2 min after addition of the substrate solution, employing excitation at 485 nm and emission at 530 nm, to determine the background fluorescence of the control sample. After the 3 h incubation, the samples were read for fluorescence as above (T=3 h).
(§2) The Relative Fluorescence Unit values (RFU) were used to calculate the sample readings as follows: RFU(T=3h)−Control RFU(T=O)=Net RFU(T=3h)
(§3) The activity of caspase cascade activation was determined by the ratio of the net RFU value for N-(2,5-dimethoxyphenyl)-2-methylthieno[3,2-d]pyrimidin-4-amine or other test compound to that of control samples. The EC50 (nM) was determined by a sigmoidal dose-response calculation (Prism 3.0, GraphPad Software Inc.).

[2] = test system: human colon carcinoma cell line HCT116; assay: Caspase cascade activation in HCT116 cells; conditions: Homo sapiens, HCT-116, 48 h, read-out: Caspase activation Potency EC50 HCT116 (48 h)
Description: as §1, §2, §3

[3] = test system: human hepatocellular carcinoma cell line SNU398; assay: Caspase cascade activation in SNU398 cells; conditions: Homo sapiens, SNU-398, 48 h, read-out: Caspase activation Potency EC50 SNU398 (48 h)
Description: as §1, §2, §3

[4] = test system: human breast cancer cell line T-47D; assay: Caspase cascade activation (DEVD-R110 fluorogenic substrate) in T-47D cells; conditions: Homo sapiens, T47D
Description: as §1, §2, §3

[5] = 24 h, T47D cells, 24 h, read-out: Caspase activation Potency EC50 T47D (24 h)
[6] = 48 h, T-47D cells, 48 h, read-out: Caspase activation Potency EC50 T-47D (48 h)

Row | Structure (SMILES) | EC50 [1] [µM] | EC50 [2] [µM] | EC50 [3] [µM] | EC50 [4, 5] [µM] | EC50 [4, 6] [µM]
1 | CCOC(=O)C=Cc1ccc(Nc2ncnc3ccsc23)cc1 [Example 33, 3-[4-(Thieno[3,2-d]pyrimidin-4-ylamino)-phenyl]acrylic acid ethyl ester] | > 10 | > 10 | > 10 | > 10 | > 10
2 | COc1ccc(OC)c(Nc2ncnc3sc(C)c(C)c23)c1 [Example 34, N-(2,5-Dimethoxyphenyl)-5,6-dimethylthieno[2,3-d]pyrimidin-4-amine] | > 10 | > 10 | > 10 | > 10 | > 10
3 | COc1ccc([N+](=O)[O-])c(Nc2ncnc3ccsc23)c1 [Example 35, N-(5-Methoxy-2-nitrophenyl)thieno[3,2-d]pyrimidin-4-amine] | > 10 | > 10 | > 10 | > 10 | > 10
4 | COc1ccc(Oc2ccccc2)cc1Nc1ncnc2ccsc12 [Example 38, N-(2-Methoxy-5-phenoxyphenyl)thieno[3,2-d]pyrimidin-4-amine] | > 10 | > 10 | > 10 | > 10 | > 10
5 | COc1ccc(Cl)cc1Nc1ncnc2ccsc12 [Example 39, N-(5-Chloro-2-methoxyphenyl)thieno[3,2-d]pyrimidin-4-amine] | > 10 | > 10 | > 10 | > 10 | 6.9
6 | COc1ccc(C(=O)O)cc1Nc1ncnc2ccsc12 [Example 41, 4-Methoxy-3-(thieno[3,2-d]pyrimidin-4-ylamino)-benzoic acid] | > 10 | > 10 | > 10 | > 10 | > 10
7 | COc1ccc(O)c(Nc2ncnc3ccsc23)c1 [Example 42, N-(2-Hydroxy-5-methoxyphenyl)thieno[3,2-d]pyrimidin-4-amine] | > 10 | > 10 | > 10 | > 10 | > 10
8 | Oc1cc(O)cc(Nc2ncnc3ccsc23)c1 [Example 43, N-(3,5-Dihydroxyphenyl)thieno[3,2-d]pyrimidin-4-amine] | > 10 | > 10 | > 10 | > 10 | > 10
9 | COc1cccc(OC)c1Nc1ncnc2ccsc12 [Example 62, N-(2,6-Dimethoxyphenyl)thieno[3,2-d]pyrimidin-4-amine] | > 10 | > 10 | > 10 | > 10 | > 10
10 | COc1ccc(N)cc1Nc1ncnc2ccsc12 [Example 72, N-(5-Amino-2-methoxyphenyl)thieno[3,2-d]pyrimidin-4-amine] | > 10 | > 10 | > 10 | > 10 | > 10

Continued, values first:

Row | EC50 [1] [µM] | EC50 [2] [µM] | EC50 [3] [µM] | EC50 [4, 5] [µM] | EC50 [4, 6] [µM] | Structure (SMILES)
11 | 0.041 | 0.319 | 0.206 | 0.02 | 0.036 | COc1ccc(OC)c(Nc2nc(SC)nc3ccsc23)c1 [Example 27, N-(2,5-Dimethoxyphenyl)-2-(methylthio)thieno[3,2-d]pyrimidin-4-amine]
12 | > 10 | > 10 | > 10 | 0.422 | 0.542 | COc1ccc(OC)c(Nc2ncnc3sc(C)cc23)c1 [Example 28, N-(2,5-Dimethoxyphenyl)-6-methylthieno[2,3-d]pyrimidin-4-amine hydrochloride]
13 | > 10 | > 10 | > 10 | > 10 | > 10 | COc1ccc(OC)c(Nc2nc(C)nc3sc(C)c(C)c23)c1 [Example 29, N-(2,5-Dimethoxy-phenyl)-2,5,6-trimethylthieno[2,3-d]pyrimidin-4-amine hydrochloride]
14 | 5.11 | > 10 | > 10 | > 10 | > 10 | COc1cccc(C)c1Nc1ncnc2ccsc12 [Example 30, N-(2-Methoxy-6-methylphenyl)thieno[3,2-d]pyrimidin-4-amine]
15 | > 10 | > 10 | > 10 | 0.417 | 0.519 | COc1ccc(C)cc1Nc1ncnc2ccsc12 [Example 31, N-(2-Methoxy-5-methylphenyl)thieno[3,2-d]pyrimidin-4-amine]
16 | 1.42 | 4.25 | 1.6 | 2.07 | 4.01 | COc1ccc(OC)c(Nc2ncnc3cc(-c4ccccc4)sc23)c1 [Example 32, N-(2,5-Dimethoxyphenyl)-6-phenylthieno[3,2-d]pyrimidin-4-amine]
17 | 5.09 | > 10 | 5.18 | > 10 | 0.873 | CCOc1ccc(OCC)c(Nc2ncnc3ccsc23)c1 [Example 36, N-(2,5-Diethoxyphenyl)thieno[3,2-d]pyrimidin-4-amine]
18 | 5.06 | > 10 | 3.57 | 5.07 | 5.33 | COc1ccc([N+](=O)[O-])cc1Nc1ncnc2ccsc12 [Example 37, N-(2-Methoxy-5-nitrophenyl)thieno[3,2-d]pyrimidin-4-amine]
19 | 5.49 | > 10 | 4.85 | 5.24 | 2.14 | COc1ccc(C(C)(C)C)cc1Nc1ncnc2ccsc12 [Example 40, N-(5-tert-Butyl-2-methoxyphenyl)thieno[3,2-d]pyrimidin-4-amine]
